Source: patent US5563176A (priority 1994, dated 1996)
Like-named read-outs stand apart in the source and are kept apart here.

How the values were obtained:
[1] = test system: MCF7 ADR (GSH-transferase) cells; assay: cells; assay type: cell-based; conditions: Homo sapiens, NCI/ADR-RES, read-out: Sensitivity of mdr lines
MDA-231, breast = assay: cells; assay type: cell-based; conditions: Homo sapiens, MDA-MB-231, 2 h
[2] = test system: human lung adenocarcinoma MV522; conditions: in vivo
L1210 cells = assay: L1210 in vivo, increased life span
Method: In collaboration, the in vivo effects of dehydroilludin M was again studied. Initially the compound was studied against L1210 cells. […] The dehydroilludin M was then administered as a 24 hour infusion (5.0 mg/kg); the ILS was 11%. After we became aware of the presence of the energy-dependent uptake in human myelocytic cells, dehydroilludin M was screened for in vivo efficacy against a syngeneic mouse AML model using C1498 cells and a single bolus of […], 2.5 mg/kg IP, produced an ILS of 35%.

tolerability in mice = conditions: for MTD at 672 h: mouse, in vivo
8392 cells = assay: cells; assay type: cell-based; conditions: 48 h, read-out: 48 hour IC50
L1210 parent cells = assay: sensitivity of mdr lines, L1210 parent; assay type: cell-based; conditions: Mus musculus
HL-60 ADR (gp150+) cells = assay: sensitivity of mdr lines, HL-60 ADR; assay type: cell-based; conditions: Homo sapiens, HL60/ADR
KB C-1 (gp170+) cells = assay: sensitivity of mdr lines, KB C-1; assay type: cell-based; conditions: KBC-1
HL60 cells (myeloid) = assay: cells; assay type: cell-based, human; conditions: Homo sapiens, HL-60, 2 h
SL-2, murine (thymic) = assay: inhibition of thymidine incorporation after two hour exposure, SL-2; assay type: cell-based; conditions: Mus musculus, 2 h; Table 1; SL-2, two hour exposure
Method: (§1) To assess cytotoxic effects, various concentrations of illudins were added to cultures of cells for 48 hours, then cell growth/viability was determined by trypan blue exclusion. As an alternative to 48 hour continuous exposure studies, cells were plated in liquid culture in 96 well plates, exposed to various concentrations of illudins for 2 hours, pulsed with [^3 H]-thymidine for one to two hours and harvested onto glass filters. The filter papers were added to vials containing scintillation fluid and residual radioactivity determined in a beta (scintillation) counter.
(§2) two hour exposure to the toxins (N - 3).

547, ovarian = assay: inhibition of thymidine incorporation after two hour exposure, 547; assay type: cell-based; conditions: 2 h; Table 1; 547, two hour exposure
Method: as §1, §2

[3] = test system: L1210 DDPt (cis-plat) cells; assay: sensitivity of mdr lines, L1210 DDPt; assay type: cell-based; conditions: Mus musculus
242, melanoma = assay: inhibition of thymidine incorporation after two hour exposure, 242; assay type: cell-based; conditions: 2 h; Table 1; 242, two hour exposure
Method: as §1, §2

[4] = test system: L1210 PAM (melphalan) cells; assay: sensitivity of mdr lines, L1210 PAM; assay type: cell-based; conditions: Mus musculus
CFU-GM = assay: colony formation zone size, CFU-GM; conditions: for Zone Size: CFU-GM
[5] = test system: SL-2 leukemia/lymphoma cells; assay: SL-2 syngeneic model, increased life span; assay type: in vivo, murine
Method: The efficacy of dehydroilludin M was then screened in a syngeneic model using murine SL-2 cells. SL-2 leukemia/lymphoma cells are injected subcutaneously and metastasized to lymph nodes, spleen, and lungs, and drug efficacy in this model is determined by increased life span (ILS). The SL-2 cells were administered at 2.5 million cells per animal and treatment was delayed. for 7 days until the tumors were palpable. Ibis is a relatively stringent test .against established tumors and contrasts to general drug screens in the SL-2 model which normally use only 0.5 million cells and starting drug treatment at 3 days. […] When administered IV at 0.03 mg/kg, twice a week, the ILS increased to 38%.

[6] = test system: MDA-231 parent (Breast) cells; assay: sensitivity of mdr lines, MDA-231 parent; assay type: cell-based; conditions: Homo sapiens, MDA-MB-231
HL60 cells = assay: cells; assay type: cell-based; conditions: Homo sapiens, HL-60, 48 h, read-out: 48 hour IC50
MCF-7, breast = assay: cells; assay type: cell-based, human; conditions: Homo sapiens, MCF7, 2 h
[7] = test system: HL60/MRI cells (human myeloid leukemia tumor cells)
KB VBL (gp170+) cells = assay: sensitivity of mdr lines, KB VBL; assay type: cell-based
L1210 BCNU cells = assay: sensitivity of mdr lines, L1210 BCNU; assay type: cell-based; conditions: Mus musculus
HL-60 parent cells = assay: sensitivity of mdr lines, HL-60 parent; assay type: cell-based; conditions: Homo sapiens
[8] = test system: Molt-4 (human T-cell leukemia) xenograft; assay: Molt-4 xenograft in athymic Balb/c nu/nu mice; assay type: in vivo; conditions: 30 μg/kg, nude mice; FIG. 5
[9] = kinetics of the reaction with dilute HCl; assay type: physicochemical; conditions: dehydroilludin M
Description: Consistent with the above hypothesis are the results of the kinetics of the reaction of illudin M and dehydroilludin M with dilute HCl. […] In the reaction with dehydroilludin M, no intermediate could be detected by NMR spectroscopy. Presumably it formed too slowly and is too short-lived to be detected.

[10] = test system: L1210 CPA (cyclophos) cells; assay: sensitivity of mdr lines, L1210 CPA; assay type: cell-based; conditions: Mus musculus

CC1=C2C(=O)C(C)(C)C=C2C(=O)[C@](C)(O)C12CC2 [Dehydroilludin M]
IC50 [1]: 68 ± 15 nM
IC50 (MDA-231, breast): 112 ± 17 nM
efficacy in this model [2]: markedly increased the lifespan
ILS (L1210 cells; 2.5 mg/kg IP daily for 5 days): 9%
ILS (L1210 cells; 24 hour infusion (5.0 mg/kg)): 11%
toxicity to mice (tolerability in mice; 60,000 μg/kg IP twice a week): nontoxic
MTD at 672 h (tolerability in mice; ip): 60 mg/kg
MTD at 672 h (tolerability in mice; iv): 1 mg/kg
IC50 (8392 cells): 269 ± 100 nM
IC50 (L1210 parent cells): 62 ± 8 nM
IC50 (HL-60 ADR (gp150+) cells): 191 ± 44 nM
IC50 (KB C-1 (gp170+) cells): 80 ± 18 nM
IC50 (HL60 cells (myeloid)): 246 ± 19 nM
IC50 (HL60 cells (myeloid); read-out: Two hour IC50): 377 ± 81 nM
IC50 (SL-2, murine (thymic)): 5240 nM
IC50 (547, ovarian): > 38000 nM
IC50 [3]: 119 ± 39 nM
IC50 (242, melanoma): > 38000 nM
IC50 [4]: 73 ± 31 nM
Zone Size (CFU-GM; dilution 1/25): 200
Zone Size (CFU-GM; dilution 1/125): 100
Zone Size (CFU-GM; dilution 1/125 (repeat)): 50
Zone Size (CFU-GM; dilution 1/625): 0
effect on CFU-gm cells (CFU-GM; at concentrations inhibiting AML colony formation): no effect
ILS ([5]; 0.03 mg/kg IV twice a week): 38%
ILS ([5]; 30 mg/kg IP twice a week): 5%
ILS ([5]; 60 mg/kg IP twice a week): 18%
IC50 [6]: 54 ± 7 nM
IC50 (HL60 cells): 296 ± 66 nM
IC50 (MCF-7, breast): 653 ± 65 nM
total tumor weight ([7]; 1 mg/kg IV, day 11): 114 ± 55 Mg
total tumor weight ([7]; 1 mg/kg IV, day 18): 883 ± 311 Mg
total tumor weight ([7]; 1 mg/kg IV, day 25): 2274 ± 992 Mg
total tumor weight ([7]; 1 mg/kg IV, day 32): 6025 ± 1772 Mg
total tumor weight ([7]; 1 mg/kg IV, day 40): 11507 ± 3707 Mg
total tumor weight ([7]; 3 mg/kg IV, day 11): 101 ± 40 Mg
total tumor weight ([7]; 3 mg/kg IV, day 18): 911 ± 309 Mg
total tumor weight ([7]; 3 mg/kg IV, day 25): 2127 ± 1092 Mg
total tumor weight ([7]; 3 mg/kg IV, day 32): 2854 ± 1260 Mg
total tumor weight ([7]; 3 mg/kg IV, day 40): 4784 ± 2303 Mg
tumor inhibition ([7]; IP twice a week, FIG. 6): dose related tumor inhibition
inhibition of tumor growth ([7]; IV twice a week, dose dependent): effective at inhibiting tumor growth
adverse effects (food or water intake, body weight) ([7]; highest amount of either drug, IV): did not display any evidence of adverse effect
IC50 (KB VBL (gp170+) cells): 78 ± 19 nM
IC50 (L1210 BCNU cells): 100 ± 31 nM
IC50 (HL-60 parent cells): 163 ± 11 nM
complete regression of tumors [8]: three of five tumors underwent complete regression
half-life [9]: 46.1 h
k, first-order reaction [9]: 2×10^-4 min^1
IC50 [10]: 38 ± 15 nM
